Test [1] relates to CT-26 colon carcinoma tumors. In words: CT-26 syngeneic mouse model of colon cancer, i.p. dosing (Examples 1-4). The test is classed as in vivo. To be noted: for tumor growth inhibition over time: TLR4 agonist 4, 20, 100 ug per mouse i.p. biweekly, vs vehicle (2% glycerol); for survivability: TLR4 agonist i.p. biweekly, vs vehicle.
For test [2], the system named is CT-26 colon carcinoma tumors. Nature of the test: In vivo anti-tumor efficacy in murine CT-26 colon carcinoma syngeneic solid tumor model (Example 5, Studies 1-4, 6, 7): tumor growth and survival. Details: species or system mouse. To be noted: for tumor growth inhibition vs control Group 5: 12 days. As to the method: The in vivo anti-tumor efficacy of the TLR4 agonist (CRX601) was assessed in the murine CT-26 colon carcinoma syngeneic solid tumor model as a monotherapy and in combination with a rate anti-mouse OX40 antibody clone OX86. Seven to eight week old female Balb/c mice (BALB/cAnNCrl, Charles River) were used in these studies. Murine CT-26 colon carcinoma cells (ATCC catalog number CRL-2638 lot#59227052) were cultured in RPMI growth medium supplemented with 10% fetal bovine serum (FBS) in a humidified 37° C. incubator with 5% CO2. CT-26 cells cultured in logarithmic growth were harvested from tissue culture flasks and centrifuged for 5 minutes at 450×g at 4° C. […] to pellet cells. The supernatant was discarded, and cells were washed in ice cold phosphate buffered saline (PBS) without calcium and magnesium and centrifuged again for 5 minutes at 450×g at 4° C. […] to pellet cells. The cells were resuspended in sterile RPMI media without FBS and adjusted to a cell concentration of 500,000 cells/ml. 100 μl of the cell stock was implanted via subcutaneous injection into the right flank of each Balb/c mouse. After ten or eleven days when the average tumor size reached approximately 100 mm^3, mice were randomized into study cohorts according to tumor size and the first treatment dose was given. The TLR4 agonist (CRX601) or vehicle was dosed via a systemic intravenous or direct intratumoral injection as indicated. The CRX-601 vehicle used for intravenous and intratumoral dosing was […] where indicated. For CRX-601 liposomal intratumoral dosing, a DOPC/CHOL liposome prepared by GSK Lot #1783-157-B was used. The rat anti-mouse OX40 receptor antibody (clone OX86) (expressed and purified in-house from the rat hybridoma Grits ID 50776, BP232 2013) or Rat IgG1 isotype control antibody (BioXCell catalog # BE0088) was dosed via an intraperitoneal injection given twice per week for a total of six doses. Caliper measurements were taken three times per week to assess tumor growth, and mice with tumors <2,000 mm^3 were maintained on study from 30 up to approximately 115 days. Mice with tumors >2,000 mm^3 for 2 consecutive measurements or mice with tumors which formed open ulcers were removed from the study. Tumor volume was calculated using the formula (0.52)×(Length)×(Width^2). In studies 6 and 7, tumor-free mice were re-challenged with CT-26 tumor cells as described above, on the opposite flank from the original inoculation site and tumor growth was monitored, as described above. All studies were conducted in accordance with the GSK Policy on the Care, Welfare and Treatment of Laboratory Animals and were reviewed by the Institutional Animal Care and Use Committee at GSK.
For studies 1-4, to determine significance of tumor growth inhibition, tumor volumes at 11 (study 1), 15 (studies 2 and 3), or 19 (study 4) days after first dose were compared between the different treatment groups. Prior to the analysis, tumor volumes were natural log transformed due to the inequality of variance in the different treatment groups. ANOVA followed by pair-wise comparison was then carried out on the log transformed data. SAS 9.3 and R 3.0.2 analysis software was used. Kaplan-Meier (KM) method was carried out to estimate the survival probability of different treatment groups at a given time. The event for survival analysis was tumor volume of 2000 mm^3 or tumor ulceration, whichever came first. The exact time to cut-off volume was estimated by fitting a linear line between log tumor volume and day of two observations, the first observation that exceed the cut-off volume and the one observation that immediately preceded the cut-off volume. The median time to endpoint and its corresponding 95% confidence interval was calculated. Whether or not KM survival curves were statistically different between any two groups was then tested by log-rank test. […]

The test system of another test is CT-26 tumor cells. Nature of the test: CT-26 tumor re-challenge of tumor-free mice (Studies 6 and 7). The following applies: vs naive control mice. The class given is in vivo, mouse. On the procedure: The in vivo anti-tumor efficacy of the TLR4 agonist (CRX601) was assessed in the murine CT-26 colon carcinoma syngeneic solid tumor model as a monotherapy and in combination with a rate anti-mouse OX40 antibody clone OX86. Seven to eight week old female Balb/c mice (BALB/cAnNCrl, Charles River) were used in these studies. Murine CT-26 colon carcinoma cells (ATCC catalog number CRL-2638 lot#59227052) were cultured in RPMI growth medium supplemented with 10% fetal bovine serum (FBS) in a humidified 37° C. incubator with 5% CO2. CT-26 cells cultured in logarithmic growth were harvested from tissue culture flasks and centrifuged for 5 minutes at 450×g at 4° C. for ten minutes to pellet cells. The supernatant was discarded, and cells were washed in ice cold phosphate buffered saline (PBS) without calcium and magnesium and centrifuged again for 5 minutes at 450×g at 4° C. for ten minutes to pellet cells. The cells were resuspended in sterile RPMI media without FBS and adjusted to a cell concentration of 500,000 cells/ml. […] Tumor volume was calculated using the formula (0.52)×(Length)×(Width^2). In studies 6 and 7, tumor-free mice were re-challenged with CT-26 tumor cells as described above, on the opposite flank from the original inoculation site and tumor growth was monitored, as described above. […]

For another test, the system named is TNF alpha and IL-12p70. Nature of the test: Multiplex cytokine analysis of plasma from CT-26 mice (Study 5). The class given is in vivo, mouse. The following applies: CRX-601 10 ug, OX-86, or both. As to the method:
Tumors, blood and tissues were harvested from CT-26 mice on day 0, day 1 and day 8 after first CRX-601 dosing. Mouse white blood cells and dissociated tumor single cells were stained freshly with surface or intracellular staining antibodies for multicolor flow cytometry analysis for immunephenotyping. Multiplex cytokine analysis was performed using mouse plasma samples from the same study.
Results are the mean of five animals per cohort.

Test [3] deals with OX40 expression on human PBMCs. Nature of the test: In vitro human PBMC assay, OX40 expression by flow cytometry. To be noted: 24 hours, 0.01 μg/ml-1,000 μg/ml. The test is classed as cell-based. On the procedure:
In vitro human peripheral blood mononuclear cell (PBMC) assay was performed to assess the effect of CRX601 on OX40 expression. Freshly isolated human PBMCs were checked for viability and were cultured in AIM-V serum free media at a density of two million cells per well in a 24-well non tissue culture treated plate. PBMCs were stimulated with a dose concentration (0.01 μg/ml-1,000 μg/ml, including a vehicle blank) of CRX-601 for 24 hours. By the end of incubation, cells were collected for flow cytometry assessment of OX40 expression.
In general terms: A flow cytometer gives signals particle by particle.

[4] abbreviates: Study 1, 50 ug intratumoral, day 42.
Setting [5] is: Study 2, 100 ug intravenous, day 32.

From patent publication US20170275371A1, “Methods Of Treatment” (GlaxoSmithKline Intellectual Property Development Limited, priority 2015, published 2017) come the findings set out here.

Several values for one entry are separate records, joined by “and”; a condition that tells them apart may be missing. Equal entries are not always repeated. Entries after “also recorded” stand apart in the source; their conditions may differ.

Take `CCCCCCCCCCC[C@H](CC(=O)N[C@H]1[C@H](OC[C@H](NC(=O)C[C@@H](CCCCCCCCCCC)OC(=O)CCCCCCCCC)C(=O)O)O[C@H](CO)[C@@H](OP(=O)(O)O)[C@@H]1OC(=O)C[C@@H](CCCCCCCCCCC)OC(=O)CCCCCCCCC)OC(=O)CCCCCCCCC` [CRX-527]: in test [1], the “tumor growth inhibition over time” value is reported as “inhibited tumor growth in a dose-dependent manner; also recorded: dose-dependent anti-tumor activity” and the survivability entry is given as “Dose dependence was also seen in the survivability”.

Turning to `CCCCCCCCCCC[C@H](CC(=O)N[C@H]1[C@H](OC[C@H](NC(=O)C[C@@H](CCCCCCCCCCC)OCCCCCCCCCC)C(=O)O)O[C@H](CO)[C@@H](OP(=O)(O)O)[C@@H]1OC(=O)C[C@@H](CCCCCCCCCCC)OCCCCCCCCCC)OCCCCCCCCCC` [CRX-601], the “tumor growth inhibition over time” value in test [1] is “inhibited tumor growth in a dose-dependent manner; also recorded: dose-dependent anti-tumor activity”. For the same compound, the survivability entry in test [1] is given as “Dose dependence was also seen in the survivability”. Also, the “tumor-free mice among mice remaining on study” value in test [2] (Study 1, 10 ug intratumoral, day 42) was “single mouse remaining in the 10 μg group was tumor-free”; in test [2] (setting [4]), “Three of the four”; in test [2] (setting [5]), “One of the three”. The “tumor growth inhibition vs vehicle” value is listed as “statistically significant” in test [2] (Study 1, 10 ug/mouse intratumoral twice per week x6, 11 days after initial dose); “statistically significant” in test [2] (Study 1, 50 ug/mouse intratumoral single dose, 11 days after initial dose); “statistically significant” in test [2] (Study 2, 10 ug/mouse intravenous twice per week x6, 15 days after initial dose); “statistically significant” in test [2] (Study 2, 100 ug/mouse intravenous single dose, 15 days after initial dose); “did not show statistically significant tumor growth inhibition” in test [2] (Study 3, CRX-601 10 ug/mouse iv once per week x3, alone, 15 days after first dose); “did not show statistically significant tumor growth inhibition” in test [2] (Study 3, CRX-601 25 ug/mouse iv once per week x3, alone, 15 days after first dose). The “tumor volume of remaining mouse not tumor-free” value in test [2] (setting [4]) was determined as 854.19 mm^3. Further, the “increase in survival vs vehicle” value was “statistically significant” in test [2] (Study 1, 50 ug intratumoral, day 42 post tumor cell inoculation) and “statistically significant increase” in test [2] (Study 2, 100 ug intravenous, day 32 post tumor cell inoculation). Moreover, the “anti-tumor activity (tumor growth inhibition over time)” value in test [2] (Study 1, intratumoral 0.1, 1, 10 ug twice per week x6 or 50 ug single dose) is “dose-dependent anti-tumor activity”; in test [2] (Study 2, intravenous 1, 10 ug twice per week x6 or 100 ug single dose), “dose-dependent anti-tumor activity”. Besides, the “tumor volume of single remaining mouse” value in test [2] (Study 2, 10 ug intravenous, day 32) was 188.0 mm^3. Also, the “tumor volumes of remaining mice not tumor-free” value in test [2] (setting [5]) was 1500.49 mm^3 and 962.61 mm^3. In test [2] (Study 4, OX-86 25 ug/mouse twice per week x6, CRX-601 25 ug/mouse iv 1x/week x3, alone or combined), the “anti-tumor activity (tumor volume over time)” value is listed as “Anti-tumor activity was observed”. In addition, the “mice remaining tumor-free at study end” value in test [2] (Study 4, day 111, 25 ug/mouse each agent, monotherapy arms with Rat IgG1 or vehicle, groups of 10) was “two”. In addition, the “tumor growth inhibition vs control Group 5” value in test [2] (Study 6, CRX-601 25 ug intratumoral 1x/week x3 + Rat IgG1 (Group 6), 0.5% glycerol/4% dextrose) is “did not show statistically significant tumor growth inhibition”; in test [2] (Study 7, CRX-601 25 ug intratumoral, DOPC/CHOL liposomal formulation + Rat IgG1 (Group 7)) it was “statistically significant”. For the same compound, the “tumor growth inhibition vs control Group 1” value in test [2] (Study 6, CRX-601 25 ug iv 1x/week x3 + Rat IgG1 (Group 2), 0.5% glycerol/4% dextrose, 12 days after first dose) is “did not show statistically significant tumor growth inhibition”; in test [2] (Study 7, CRX-601 25 ug iv (0.5% Glycerol/4% dextrose) + Rat IgG1 (Group 2), 12 days after initial dose), “statistically significant”. The “mice showing full tumor regressions” value in test [2] (Study 7, CRX601 25 ug IV alone (Group 2) or with OX86 IP (Group 4), day 80) was 5 out of 10. Moreover, the “increase in survival vs control Group 1” value in test [2] (Study 7, CRX601 monotherapy IV (Group 2), 80 days after first dose) was “statistically significant”. Besides, the “increase in survival vs control Group 5” value in test [2] (Study 7, CRX601 monotherapy intratumoral, DOPC/CHOL liposome formulation (Group 7), 80 days) is given as “statistically significant”. For the same compound, the “mice fully regressed and tumor-free” value in test [2] (Study 7, intratumoral liposomal arms: Group 8 combination, Group 6 OX86, Group 7 CRX601, day 80, groups of 10) is reported as 2 mice. Also, the “tumor growth after CT26 re-challenge of tumor-free mice” value is on record as “persistent anti-tumor memory immunity” in the test with CT-26 tumor cells (Study 6, re-challenge on day 68) and “persistent anti-tumor memory” with CT-26 tumor cells (Study 7, re-challenge on day 80). For the same compound, the TNF alpha result in the test on TNF alpha and IL-12p70 (1 and 8 days post dosing) is “increase”. Further, in the test with TNF alpha and IL-12p70 (only detectable at 8 days post dosing), the IL-12p70 result is given as “increase”. In test [3], the “OX40 expression on dendritic cells” value is reported as “quick upregulation of OX40 receptor expression”. Moreover, the “OX40 expression on human CD4+ T cells” value in test [3] is listed as “quick upregulation of OX40 receptor expression”. For the same compound, the “OX40 expression on monocytes” value in test [3] is recorded as “quick upregulation of OX40 receptor expression”.
